The subject of test [1] is AMO1 cell line. The experiment in a line: Proliferation assay. Particulars: AMO1; for pIC50: Homo sapiens, read-out: IC50 concentration, proliferation. Type of test: cell-based. On the procedure: (§1) Proliferation and viability assays: Cell growth curves were determined by monitoring the viability of cells with Trypan blue exclusion on a Vi-Cell-XR (Becton Dickinson, Franklin Lakes, N.J., USA). Proliferation assays were performed in triplicate at least three times (n=3) using (3H)-thymidine incorporation. All data were plotted and analyzed using GraphPad Prism 7 (GraphPad Software, La Jolla, Calif., USA) software, represented as the mean with an error determined as ±s.d.
(§2) Proliferation and viability assay. Cell growth curves were determined by monitoring the viability of cells with Trypan blue exclusion on a Vi-Cell-XR (Becton Dickinson, Franklin Lakes, N.J., USA). Cell lines were plated in triplicate in 96-well round-bottom plates with the indicated drug concentrations or knockdown cells. […] All data were plotted and analyzed using GraphPad Prism 7 (GraphPad Software, La Jolla, Calif., USA) software, represented as the mean with an error determined as ±s.d.

Test [2] concerns AMO1-PR (pomalidomide resistant) cell line. The experiment in a line: Proliferation assay. Type of test: cell-based. Particulars: for pIC50: isogenic sensitive/resistant comparison, read-out: IC50 concentration, proliferation. On the procedure: as §1, §2
Test [3] relates to K12PE cell line. The experiment in a line: Proliferation assay. Type of test: cell-based. Particulars: for pIC50: K12PE, read-out: IC50 concentration, proliferation. As to the method:
as §1, §2

In test [4] the test system is K12PE-PR cell line. The experiment in a line: Proliferation assay. The class given is cell-based. Particulars: for pIC50: K12PE-PR, isogenic sensitive/resistant comparison, read-out: IC50 concentration, proliferation. As to the method:
as §1, §2

Test [5] has as its system H929 cell line. The experiment in a line: Proliferation assay. Type of test: cell-based. Particulars: Homo sapiens, read-out: IC50 concentration, proliferation. As to the method: as §1
(§3) Proliferation and viability assay. Cell growth curves were determined by monitoring the viability of cells with Trypan blue exclusion on a Vi-Cell-XR (Becton Dickinson, Franklin Lakes, N.J., USA). Cell lines were plated in triplicate in 96-well round-bottom plates with the indicated drug concentrations or knockdown cells. Proliferation assays were performed in triplicate at least three times (n=3) using either the WST-1 tetrazolium salt (Roche Applied Science) reagent used according to the manufacturer's specifications or by (3H)-thymidine incorporation as previously described (Bjorklund et al., Blood Cancer Journal 5, e354, 2015). All data were plotted and analyzed using GraphPad Prism 7 (GraphPad Software, La Jolla, Calif., USA) software, represented as the mean with an error determined as ±s.d.

The subject of test [6] is H929-PR cell line. The experiment in a line: Proliferation assay. Conditions: isogenic sensitive/resistant comparison, read-out: IC50 concentration, proliferation. Type of test: cell-based. On the procedure: as §3
In test [7] the test system is other kinases, including Cdk1 and Aurora B. Conditions: selective inhibitors of NEK2; Henise 2011, Innocenti 2012; cited from earlier work.
Test [8] has as its system PLK1 signaling in MM1.S cells. The experiment in a line: Immunoblot of PLK1 signaling. The class given is cell-based. Conditions: MMS.1 cells, increasing concentrations; FIG. 2C. As to the method:
(§4) Immunoblotting: Immunoblot analysis was performed using WES kits, (Protein Simple, San Jose, Calif., USA) at least two times each (n≥2), where the best representative is shown.
(§5) The effects of pomalidomide in isogenic sensitive (EJM) and resistant (EJM-PR) and MM1.S cell lines was analyzed. […] To determine the role of PLK1 in pomalidomide response, EJM and EJM-PR cell lines were treated with pomalidomide and analyzed changes in PLK1 levels and downstream signaling. […] The changes in PLK1 transcript levels were further examined in response to pomalidomide treatment in MM1. […] Confocal microscopy was performed to study changes in PLK1 and CDC25C staining in MM1.S cells and a decrease in PLK1 levels and simultaneous decrease in CDC25C staining in response to pomalidomide and Compound 5 treatments was observed. […] Further analysis of the ChIP-seq datasets of Aiolos confirmed binding of Aiolos on TSS of PLK1 with overlapping transcriptional activation H3K27Ac signature extrapolated from publicly available ChIP-seq datasets in GM12878 cell line (Encode project). Since changes in PLK1 levels are due to decrease in PLK1 transcription in response to antiproliferative compounds, the effects of Aiolos and Ikaros knockdowns on PLK1 levels using MM1.S cells with inducible expression of Aiolos and Ikaros shRNAs were analyzed. Both Aiolos and Ikaros knock down lead to a decrease in PLK1 levels (FIG. 2F), indicating transcriptional regulation of PLK1 by substrates of Cereblon.
A general note: Immunoblotting shows a protein as a band on a membrane.

Test [9] has as its system PLK1, pCDC25C and CDC25C in EJM cells. The experiment in a line: Immunoblot of PLK1 signaling. The class given is cell-based. Conditions: EJM (sensitive) cells only, not EJM-PR. As to the method: as §4, §5
For test [10], the system named is PLK1 transcript in MM1.S cells. The experiment in a line: PLK1 transcript levels (qPCR). The class given is cell-based. Conditions: FIG. 2D. On the procedure:
RNA Extraction, Reverse Transcription, and Real-Time PCR Analysis: Total RNA was extracted using a RNeasy plus kit (Qiagen, Germantown, Md., USA) and reverse-transcribed using an iScrip reverse transcription kit (Bio-Rad, Philadelphia, Pa., USA). Quantitative real-time PCR (qPCR) analyses were performed using Taqman PCR Master Mix and the ViiA 7 Real-Time PCR System (Applied Biosystems, Foster City, Calif., USA). Gene expressions were calculated following normalization to GAPDH levels using the comparative CT method (ΔΔCT method). The primer sequences for qPCR are following:
The effects of pomalidomide in isogenic sensitive (EJM) and resistant (EJM-PR) and MM1.S cell lines was analyzed. […] To determine the role of PLK1 in pomalidomide response, EJM and EJM-PR cell lines were treated with pomalidomide and analyzed changes in PLK1 levels and downstream signaling. […] The changes in PLK1 transcript levels were further examined in response to pomalidomide treatment in MM1. […] Since changes in PLK1 levels are due to decrease in PLK1 transcription in response to antiproliferative compounds, the effects of Aiolos and Ikaros knockdowns on PLK1 levels using MM1.S cells with inducible expression of Aiolos and Ikaros shRNAs were analyzed. […]
(In general: In qPCR the cycle at which signal appears reflects the starting amount.)

For test [11], the system named is CKS1B and E2F2 in EJM and EJM-PR cell lines. The experiment in a line: CKS1B and E2F2 in response to Pom. The class given is cell-based. Conditions: isogenic EJM and EJM-PR; FIG. 12. On the procedure: Effects of Pomalidomide (Pom) on CKS1B and E2F2 in Pom sensitive and resistant cell lines. […] Since Aiolos was not degraded in the EJM-PR cell line consistent with the absence of CKS1B and E2F2 downregulation, the binding of Aiolos on the transcriptional start sites (TSS) of CKS1B and E2F2 was analyzed.

Test [12] concerns Control shRNA cell lines. The experiment in a line: Biparametric Annexin V and Propidium Iodide assay. Type of test: cell-based. On the procedure:
(§6) Biparametric assay for detection of cell cycle and apoptosis. Cell viability assay with Annexin V-FITC and propidium iodide was performed according to the published protocol cycle (Rieger et al., J Vis Exp. 2011, (50):2597; Léonce et al., Mol Pharmacol. 2001, 60(6):1383-1391).
(§7) Pomalidomide treatment combined with NEK2 inhibition increases apoptosis. Biparametric Annexin V and Propidium Iodide (PI) assay was performed to analyze cell cycle and apoptosis in the same sample and to quantify the proportion of cells undergoing apoptosis at each phase of cell cycle (Rieger et al., J Vis Exp. 2011, (50):2597; Léonce et al., Mol Pharmacol. 2001, 60(6):1383-1391). Control shRNA and NEK2 shRNA cell lines were treated with pomalidomide and followed cell cycle and apoptosis for the duration of two cell cycles. At 72 hours about 5.04% cells in the control shRNA lines were apoptotic compared to 21.1% apoptotic cells in NEK2 shRNA cell lines. […] At 96 hours about 9.5% of the cells in control shRNA lines and 24.7% of the NEK2 shRNA cell lines were apoptotic, and a majority of apoptotic cells were again contributed from G1-S phase of cell cycle. […] Combination of these two agents results in apoptosis of 20-25% cells in each cycle, with majority of apoptotic cells contributed from G1/S phase of cell cycle.

The subject of test [13] is NEK2 shRNA cell lines. The experiment in a line: Biparametric Annexin V and Propidium Iodide assay. Type of test: cell-based. On the procedure:
as §6, §7

Test [14] concerns Mc-CAR cell line. The experiment in a line: Proliferation assay. Conditions: 72 h; MC-CAR; Day 3 post treatment; NEK2 inhibitor; read-out: IC50 concentration, proliferation. Type of test: cell-based. On the procedure:
as §1, §3

Test [15] has as its system Ikaros (IKZF1), Aiolos (IKZF3) and ZFP91. The experiment in a line: Substrate degradation by immunoblotting. Particulars: single agent. The class given is cell-based. On the procedure:
Effect of NEK2 downregulation on Compound 5 and Compound 6-induced substrate degradation. […] The effect of NEK2 knockdown on pomalidomide mediated substrate degradation was also studied. Control and NEK2 shRNA cells were incubated to varying concentrations of pomalidomide. Pomalidomide treatment degraded Ikaros (IKZF1), Aiolos (IKZF3) and ZFP91 in a concentration dependent manner in control shRNA lines. A similar pattern of substrate degradation was maintained in NEK2 knockdown cell lines.

[16] abbreviates: 72 h, Day 3 post treatment, NEK2 inhibitor.
[17] abbreviates: isogenic sensitive/resistant comparison.
Setting [18] is: NCI-H929, 72 h, Day 3 post treatment, NEK2 inhibitor.
[19] abbreviates: NCI-H929, isogenic sensitive/resistant comparison.

Results on 3 molecules are retold here after patent publication US20230255975A1, “METHODS FOR TREATING CANCER WITH COMBINATION THERAPIES” (Celgene Corporation, priority 2020, published 2023).

pIC50: −log10 of the molar value. Read-outs that look alike come from different tables or passages of the source.

As for `CC(/C=C\C(F)(F)F)Oc1cc(-c2cc(-c3cc(CN(C)C)cs3)cnc2N)ccc1C(N)=O` (racemic) [Rac-CCT 250863, 4-[2-amino-5-[4-[(dimethylamino)methyl]-2-thienyl]-3-pyridinyl]-2-[[(2Z)-4,4,4-trifluoro-1-methyl-2-buten-1-yl]oxy]benzamide], the pIC50 in test [1] (setting [16]) is 5.15; in test [1] (setting [17]), 5.15; in test [2], 5.44; in test [3] (setting [16]), 5.06; in test [3] (setting [17]), 5.07; in [4], 5.29. Moreover, the pIC50 is 5.10 in test [5] (setting [18]), 5.10 in test [5] (setting [19]) and 5.28 in test [6]. For the same molecule, the “Selectivity: effect on other kinases, including Cdk1 and Aurora B” value in test [7] was “low effect on other kinases”.
For the molecule `Nc1cccc2c1C(=O)N(C1CCC(=O)NC1=O)C2=O` (stereo not drawn) [Compound 1, 4-amino-2-(2,6-dioxopiperidine-3-yl)isoindoline-1,3-dione], the “Synergy with trametinib on proliferation” value in test [1] (in combination with trametinib) and in [2] (in combination with trametinib) was “strong synergy” in each case. Besides, in [3] (K12PE cells, in combination with JQ1), the “Synergy analysis (Calcusyn) of combination with JQ1 on proliferation” value is listed as “synergistic”. Further, the “Synergy of combination with JQ1 on proliferation” value in test [4] (Pom resistant K12PE-PR, in combination with JQ1) is on record as “synergistically decreased proliferation”. The PLK1 signaling entry in test [8] is on record as “dose dependent decrease”. For the same molecule, in test [9], the “PLK1 levels and downstream effector pCDC25C and CDC25C” value is “dose dependent decrease”. Moreover, the PLK1 transcript levels result in [10] was “decreased PLK1 transcript levels in a dose dependent manner”. Also, the “CKS1B and E2F2 expression” value in test [11] is “downregulated at the transcriptional level only in Pom sensitive cells”. Besides, the apoptotic cells entry in test [12] (72 hours) is “about 5.04%”; in [12] (96 hours) it was “about 9.5%”; in [13] (72 hours), 21.1%; in test [13] (96 hours), 24.7%.
With `C#CC(=O)Nc1ccc2c(c1)/C(=C/c1[nH]c(CC)nc1C)C(=O)N2` [JH295, (Z)—N-(3-((2-ethyl-4-methyl-1H-imidazol-5-yl)methylene)-2-oxoindolin-5-yl)propiolamide], the pIC50 in test [1] (setting [16]) is 6.32; in [1] (setting [17]) it was 6.32; in [2], 6.51; in test [3] (setting [16]) it was 5.40; in test [3] (setting [17]), 5.40; in [4], 4.97. For the same molecule, the pIC50 in [5] (setting [18]) was 6.43; in [5] (setting [19]), 6.43; in test [14], 6.25; in test [6], 6.57. In addition, in test [15], the “substrate degradation (Ikaros, Aiolos, ZFP91) in comparison to DMSO control” value is recorded as “No effect”.
